The experiment has as its target T1, CXCR4 (Homo sapiens, UniProt P61073).
T1 construct: a human T cell strain in which CXCR4 is known to be expressed; endogenous in cells; host or cells: CEM cells (human T cell strain)
The experiment in a line: Study for inhibition of binding human SDF-1 to CEM cells. The following applies: human T cell strain CEM cells, 125I-SDF-1, 4° C. for 60 minutes. An excerpt:
As mentioned above, a more direct procedure is a screening a compound that prevents for HIV from binding to CXCR4, which is a receptor on CD4+ cell, on an assay system using HIV. However, using HIV for a large-scale screening is not practical due to its difficult handling. On the other hand, both of T cell-directed (X4) HIV-1 and SDF-1 bind to CXCR4 and therefore CXCR4 binding sites at both of HIV-side and SDF-1-side as well as SDF-1- and HIV-binding sites at the CXCR4 side may presumably have any common characteristics. […]
To human T cell strain CEM cells in a binding buffer (containing HEPES and BSA), the test compound and ^125I-SDF-1 (NEN) were added and the mixture was incubated at 4° C. for 60 minutes. […] An amount of the radioactivity bound to the CEM cells was measured using Top Count (Packard) and inhibition (%) of the test compound was calculated according to the following equation: Inhibition=(Et−Ea)/(Et−Ec)×100
Et: amount of radioactivity when the test compound is not added,
Ec: amount of radioactivity when non-radioactive SDF-1 (Pepro Tech) is added in an amount of 1000 times as much as ^125I-SDF-1 as a test compound, and
Ea: amount of radioactivity when the test compound is added.

Each structure is given as a SMILES string.

T1 sequence (P61073 whole entry): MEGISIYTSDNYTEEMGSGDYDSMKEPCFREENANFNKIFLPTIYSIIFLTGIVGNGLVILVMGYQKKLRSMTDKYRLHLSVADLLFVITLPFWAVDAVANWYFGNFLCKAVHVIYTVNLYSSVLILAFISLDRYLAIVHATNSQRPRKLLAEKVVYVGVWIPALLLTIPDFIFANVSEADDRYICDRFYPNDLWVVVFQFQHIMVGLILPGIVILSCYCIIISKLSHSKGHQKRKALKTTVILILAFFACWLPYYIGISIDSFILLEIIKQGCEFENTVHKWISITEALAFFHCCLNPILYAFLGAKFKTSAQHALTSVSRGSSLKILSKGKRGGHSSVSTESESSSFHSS

As for `NCCC[C@@H]1[C@@H](Nc2nccc(N3CCCCCC3)n2)CCN1C1CCCCC1` [compound 10-2, N-[(2R,3S)-2-(3-aminopropyl)-1-cyclohexyl-3-pyrrolidinyl]-4-(1-azepanyl)-2-pyrimidinamine], the IC50 was found to be 1.6 nM.
